Columns and labels:
Jurkat cells = experiment: Anti-Fas antibody induced RIPK1-independent apoptosis; format: cell-based, human; conditions: 5 ng/ml anti-Fas antibody, 5 h, zVAD 25 μM, primidone 1 mM
Protocol: To this end, human T cells (Jurkat cells) were incubated for 5 h at 37° C. in the presence of (a) vehicle, (b) 5 ng/ml anti-Fas antibody, (c) 5 ng/ml anti-Fas antibody in combination with 25 μM of the pan-caspase inhibitor zVAD, and (d) 5 ng/ml anti-Fas antibody in combination with 1 mM primidone. The addition of the anti-Fas antibody induces apoptosis, a caspase-dependent form of regulated cell death that can be inhibited by the addition of the pan-caspase inhibitor zVAD.

RIPK1 [1] = target: T1, RIPK1 (Homo sapiens, UniProt Q13546); experiment: KINOMEscan profiling kinase assay
T1 sequence (Q13546 1-671): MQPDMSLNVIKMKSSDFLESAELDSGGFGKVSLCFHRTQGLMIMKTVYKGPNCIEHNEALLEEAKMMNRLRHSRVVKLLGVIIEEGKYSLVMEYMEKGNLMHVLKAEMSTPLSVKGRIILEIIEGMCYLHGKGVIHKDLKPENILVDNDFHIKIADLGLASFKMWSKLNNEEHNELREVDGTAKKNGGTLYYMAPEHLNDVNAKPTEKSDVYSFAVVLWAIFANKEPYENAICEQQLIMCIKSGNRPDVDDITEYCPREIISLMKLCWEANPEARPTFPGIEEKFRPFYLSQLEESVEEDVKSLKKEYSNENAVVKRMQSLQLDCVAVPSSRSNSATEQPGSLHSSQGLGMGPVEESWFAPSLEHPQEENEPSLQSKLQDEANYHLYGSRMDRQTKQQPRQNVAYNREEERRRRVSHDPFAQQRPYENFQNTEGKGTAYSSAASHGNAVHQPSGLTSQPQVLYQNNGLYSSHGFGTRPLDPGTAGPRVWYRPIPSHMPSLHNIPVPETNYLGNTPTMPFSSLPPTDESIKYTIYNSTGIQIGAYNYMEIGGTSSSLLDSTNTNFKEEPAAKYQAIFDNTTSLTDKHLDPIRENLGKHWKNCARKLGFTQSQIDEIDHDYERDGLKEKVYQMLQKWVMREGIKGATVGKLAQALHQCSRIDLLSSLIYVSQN
Protocol: To clarify, a KINOMEscan™ profiling kinase assay was performed. […] Dissociation constants (Kd) for test compound-kinase interactions are calculated by measuring the amount of kinase captured on the solid support as a function of the test compound concentration.

L929 cells = experiment: Stimulation assay: TNF-α + 5Z-7 (± zVAD) induced RIPK1-dependent apoptosis/necroptosis; format: cell-based, murine; conditions: primidone 1 mM, Nec-1s 20 μM
Protocol: Murine fibroblasts (L929 cells) were stimulated for 24 h at 37° C. in the presence of (a) vehicle, (b) 10 ng/ml tumor necrosis factor alpha (TNF-α), (c) 1 μM 5Z-7-oxozeaenol (5Z-7), (d) a combination of 10 ng/ml TNF-α and 1 μM 5Z-7, (e) a combination of 10 ng/ml TNF-α, 1 μM 5Z-7, and 20 μM necrostatin-1 (Nec-1s), (f) a combination of 10 ng/ml TNF-α, 1 μM 5Z-7, and 1 mM primidone (primidone is referred to in the Figures as compound A), (g) a combination of 10 ng/ml TNF-α, 1 μM 5Z-7, and 25 μM zVAD, (h) a combination of 10 ng/ml TNF-α, 1 μM 5Z-7, and 20 μM Nec-1s, and (i) a combination of 10 ng/ml TNF-α, 1 μM 5Z-7, 25 μM zVAD, and 1 mM primidone. TNF-α is a pro-inflammatory cytokine which triggers cell survival (canonical pathway) or cell death, depending on the cellular context. 5Z-7-oxozeaenol (5Z-7) is an inhibitor of transforming growth factor activated kinase 1 (TAK1). TAK1 is an intermediate in the signaling pathway of the TNF-receptor type 1 (TNFR1), and it is known that TAK1 is essential for the prevention of TNF-induced cell death. Cells in which TAK1 is disrupted or otherwise blocked are hypersensitive to TNF-α-induced cell death due to diminished prosurvival pathways including NF-κB and reduced antioxidant enzymes which results in activation of caspases. The compound zVAD is a pan-caspase inhibitor.

RIPK1 [2] = experiment: RIPK1 phosphorylation (Ser166) western blot after TSZ; format: cell-based, human; conditions: U937, TSZ, 1 mM primidone
Protocol: It was tested whether primidone interferes with binding of TNF-α to its corresponding receptor TNFR1. To induce cell death, human U937 cells were treated in the absence (vehicle) or presence of 1 mM primidone with 100 ng/ml Fc-tagged TNF-α+1 μM SMAC mimetic SM164+25 μM zVAD (TSZ) for different time periods, followed by immunopurification of the immunoprecipitated TNF-α-induced complex I using μMACS™ protein A/G microbeads, and western blot analysis using a specific RIPK1 antibody.
It was then analyzed if the previously immunoprecipitated RIPK1 is activated by phosphorylation. For this purpose, the Western Blot shown before (FIG. 5) was “stripped” by chemically removing all reagents from the blot and re-developed with an antibody that only detects RIPK1 in its activate (i.e. phosphorylated) form.

[3] = TNF-α-induced SIRS mouse model; format: in vivo; conditions: C57BL/6 mice, 10 mg/kg i.p. 15 min before 1 mg/kg murine TNF-α i.v.
Protocol: Hypothermia and morbidity induced by a high dose of TNF-α is considered in the literature to be a model for systemic inflammatory response syndrome (SIRS) (Moerke C, et al. (2019); Newton K, et al. (2014); Duprez L, et al. (2011)). All mice (8 weeks old) used in this experiment were on C57BL/6 background and age-, sex-, and weight-matched. Recombinant carrier-free murine TNF-α was obtained from R&D Systems (Bio-Techne, Wiesbaden, Germany). Each mouse received a single bolus of 1 mg murine TNF-α/kg body weight in a total volume of […] phosphate-buffered saline, via the tail vein. In this setting, mice received 15 min before TNF-α application a single intraperitoneal (i.p.) injection (total volume per mouse was 200 μl) of either 2.5% DMSO in PBS (vehicle) or 10 mg primidone/kg body weight (as indicated). Thereafter, the animals (n=16 per group) were placed under permanent observation and survival was checked every 15 min. Survival is depicted in a Kaplan-Meier plot (*** p<0.001).

SMILES: CCC1(c2ccccc2)C(=O)NCNC1=O [primidone, 5-Ethyl-5-phenyl-1,3-diazinane-4,6-dione]
- Inhibition of anti-Fas antibody induced cell death (caspase-dependent, RIPK1-independent) (Jurkat cells): no inhibitory effect
- Binding to RIPK1 kinase domain (prevention of kinase binding to immobilized ligand) (RIPK1 [1]): does not inhibit RIPK1 by binding directly to its kinase domain
- Block of RIPK1-dependent necroptosis (L929 cells; L929, 10 ng/ml TNF-α + 1 μM 5Z-7 + 25 μM zVAD, 24 h): able to block
- Block of RIPK1-dependent apoptosis (RDA) (L929 cells; L929, 10 ng/ml TNF-α + 1 μM 5Z-7, 24 h, zVAD 25 μM): could also be blocked
- Activation (phosphorylation) of RIPK1 at residue Ser166 (RIPK1 [2]): completely blocked
- TNF-α-induced hypothermia [3]: significantly improves
- Survival after TNF-α injection ([3]; vs vehicle, p<0.001): significantly enhanced survival
